According to patent US7288532B1, “Modified chitosan polymers and enzymatic methods for the production thereof” (The University of Maryland Biotechnology Institute, priority 1998, dated 2007):

System: tyrosinase
Assay: tyrosinase activity under mildly acidic conditions by consumption of dissolved oxygen
Type: biochemical, mushroom
Conditions: chlorogenic acid 6 mM, 0.16% chitosan, pH about 5.8 to 6.0, tyrosinase 60 U/mL
Procedure: The reactivity of tyrosinase under mildly acidic conditions was studied to verify that the enzyme remains active in acidic solution. The progress of the reaction was measured by monitoring the consumption of dissolved oxygen, using the method described in Mayer et al., “Assay of catechol oxidase: A critical comparison of methods,” Phytochem., 5:783-789 (1966). The dissolved oxygen probe used in these measurements was obtained from Microelectrodes, Londonderry, N.H. Chlorogenic acid (6 mM) was added to a 0.16% chitosan solution, and the pH was adjusted to about 5.8 to 6.0. Tyrosinase (60 U/mL) was added, the reaction vessel sealed, and the dissolved oxygen content measured as a function of time. Two control solutions were prepared and monitored in the same manner, one containing only tyrosinase and chitosan (no phenolic compound), and one containing only chlorogenic acid and chitosan (no enzyme). The results of these measurements are shown in FIG. 1, with the two control solutions labeled “tyrosinase only” and “chlorogenic acid only,” respectively. […] In the solution containing both tyrosinase and chlorogenic acid, however, the oxygen level dropped rapidly in the first few minutes, reaching essentially zero after about 10 to 12 minutes.

With `O=C(/C=C/c1ccc(O)c(O)c1)O[C@@H]1C[C@](O)(C(=O)O)C[C@@H](O)[C@H]1O` [chlorogenic acid] the “time for dissolved oxygen level to reach essentially zero” value was 10 to 12 min.
